Source: patent US20140051679A1, “KINASE INHIBITORS AND METHOD OF TREATING CANCER WITH SAME” (UNIVERISTY HEALTH NETWORKS, priority 2011, published 2014)

Columns and labels:
[1] = test system: HT29 colon cancer cells; test: Cell growth inhibition, Sulforhodamine B assay, HT29; assay type: cell-based; details: Homo sapiens, HT-29, 120 h, 5 days culture, SRB assay, read-out: Cell Line GI50 Range HT29
[2] = target: T1, human TTK (Homo sapiens, UniProt P33981); test: TTK inhibition assay (indirect ELISA); assay type: biochemical; details: GST-TTK 0.68 nM, 16 μM ATP; read-out: IC50 Ranges TTK
T1 construct: amino terminal GST fusion of full length human TTK; purchased Invitrogen
T1 sequence (P33981 1-857): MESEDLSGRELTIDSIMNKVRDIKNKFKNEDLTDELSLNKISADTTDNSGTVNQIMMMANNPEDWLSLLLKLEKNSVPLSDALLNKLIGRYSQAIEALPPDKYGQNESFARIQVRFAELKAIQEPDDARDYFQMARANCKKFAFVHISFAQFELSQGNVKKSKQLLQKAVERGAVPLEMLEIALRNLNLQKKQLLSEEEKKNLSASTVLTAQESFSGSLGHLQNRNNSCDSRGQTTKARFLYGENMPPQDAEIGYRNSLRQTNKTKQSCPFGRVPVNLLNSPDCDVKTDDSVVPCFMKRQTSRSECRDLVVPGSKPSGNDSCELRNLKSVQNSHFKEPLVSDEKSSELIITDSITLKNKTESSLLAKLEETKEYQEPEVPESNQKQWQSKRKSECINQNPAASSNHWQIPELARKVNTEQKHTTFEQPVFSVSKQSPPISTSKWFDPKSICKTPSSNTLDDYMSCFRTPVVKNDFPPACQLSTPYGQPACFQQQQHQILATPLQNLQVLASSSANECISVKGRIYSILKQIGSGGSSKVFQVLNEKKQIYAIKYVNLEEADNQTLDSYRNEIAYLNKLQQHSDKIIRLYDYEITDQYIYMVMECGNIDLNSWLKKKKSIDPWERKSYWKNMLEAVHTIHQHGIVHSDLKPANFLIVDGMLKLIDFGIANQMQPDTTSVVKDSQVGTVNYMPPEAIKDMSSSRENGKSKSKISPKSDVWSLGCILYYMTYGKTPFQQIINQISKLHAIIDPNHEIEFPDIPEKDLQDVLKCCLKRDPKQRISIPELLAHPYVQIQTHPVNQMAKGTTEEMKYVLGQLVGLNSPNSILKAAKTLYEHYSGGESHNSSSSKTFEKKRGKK

[3] = target: T2, Aurora B (Homo sapiens, UniProt Q96GD4); test: Aurora B inhibition assay (Z-Lyte); assay type: biochemical; details: 28 nM Aurora B, 128 μM ATP; read-out: IC50 Ranges Aurora B
T2 construct: purchased Invitrogen PV3970
Experimental: Aurora B inhibition was determined using the Z-Lyte assay kit from Invitrogen. The assay was performed using the recommended manufacturer's instructions with 128 μM ATP and 28 nM Aurora B (Invitrogen cat #PV3970). The % inhibition values were determined according to the manufacturer's directions and IC50 values were obtained using a non-linear 4 point logistic curve fit (XLfit4, IDBS)

[4] = test system: MDA-MB-231 breast cancer cells; test: Cell growth inhibition, Sulforhodamine B assay, MDA-MB-231; assay type: cell-based; details: Homo sapiens, 120 h, 5 days culture, SRB assay, read-out: Cell Line GI50 Range MDA-MB-231
[5] = test system: OVCAR-3 ovarian cancer cells; test: Cell growth inhibition, Sulforhodamine B assay, OVCAR-3; assay type: cell-based; details: Homo sapiens, 120 h, 5 days culture, SRB assay, read-out: Cell Line GI50 Range OVCAR-3
[6] = test system: MDA-MB-468 breast cancer cells; test: Cell growth inhibition, Sulforhodamine B assay, MDA-MB-468; assay type: cell-based; details: Homo sapiens, 120 h, 5 days culture, SRB assay, read-out: Cell Line GI50 Range MDA-MB-468
[7] = target: T3, human PLK4 (Homo sapiens, UniProt O00444); test: PLK4 inhibition assay (indirect ELISA); assay type: biochemical; details: GST-PLK4 4 nM, 15 μM ATP; read-out: IC50 Ranges PLK4
T3 construct: amino terminal GST fusion of residues 1-391 of human PLK4; made in house; host or cells: E. coli
T3 sequence (O00444 1-391): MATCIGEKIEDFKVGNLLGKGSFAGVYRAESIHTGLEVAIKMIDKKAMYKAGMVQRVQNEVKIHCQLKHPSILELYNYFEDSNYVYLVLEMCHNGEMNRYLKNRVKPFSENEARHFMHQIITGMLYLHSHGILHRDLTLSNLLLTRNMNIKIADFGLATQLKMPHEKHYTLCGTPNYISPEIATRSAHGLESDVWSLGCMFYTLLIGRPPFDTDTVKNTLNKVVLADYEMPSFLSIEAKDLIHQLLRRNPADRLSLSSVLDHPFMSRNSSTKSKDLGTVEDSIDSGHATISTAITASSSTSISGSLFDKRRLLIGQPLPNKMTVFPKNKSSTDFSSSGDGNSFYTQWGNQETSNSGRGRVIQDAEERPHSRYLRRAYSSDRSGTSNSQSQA
Summary of the method: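 Dephosphorylated GST-tagged human PLK4 (residues 1-391, E. coli), 4 nM, preincubated 15 min with compound, then reacted 30 min with 15 μM ATP on MBP-coated plates (50 mM HEPES pH 7.5, 10 mM MgCl2, 0.01% Brij 35). Phospho-MBP detected by antibody ELISA at 450 nm. Tested at 10 μM or 10-point titrations; IC50 from 4-parameter logistic fit.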

[8] = test system: HCT116 colon cancer cells; test: Cell growth inhibition, Sulforhodamine B assay, HCT116; assay type: cell-based; details: Homo sapiens, HCT-116, 120 h, 5 days culture, SRB assay, read-out: Cell Line GI50 Range HCT116
[9] = test system: PA-1 ovarian cancer cells; test: Cell growth inhibition, Sulforhodamine B assay, PA-1; assay type: cell-based; details: 120 h, 5 days culture, SRB assay, read-out: Cell Line GI50 Range PA-1
Experimental: Breast cancer cells (MDA-MB-231, MDA-MB-468), colon cancer cells (HCT116, HT29) and ovarian cancer cells (PA-1, OVCAR-3) were seeded (1000 to 4000 in 80 μl per well depending on the cell growth rate) into 96 well plates 24 hours before compound overlay. Compounds were prepared as 10 mM stock solutions in 100% DMSO which were diluted with DMEM (Dulbecco's Modified Eagle's Medium) cell growth Medium (Invitrogen, Burlington, ON, Canada) containing 10% FBS (Fetal Bovine Serum) to concentrations ranging from 50 nM to 250 μM. Aliquots (20 μl) from each concentration were overlaid to 80 μl of the pre-seeded cells in the 96 well plates to make final concentrations of 10 nM to 50 μM. The cells were cultured for 5 days before the Sulforhodamine B assay (SRB) was performed to determine the compound's cell growth inhibition activity.
Sulforhodamine B (purchased from Sigma, Oakville, ON, Canada) is a water-soluble dye that binds to the basic amino acids of the cellular proteins. Thus, colorimetric measurement of the bound dye provides an estimate of the total protein mass that is related to the cell number. the cells are fixed in situ by gently aspirating off the culture media and adding 50 μl ice cold 10% Trichloroacetic Acid (TCA) per well and incubate at 4° C. for 30-60 min, The plates are washed with water five times and allowed to air dry for 5 min. Addition of 50 μl 0.4% (w/v) SRB solution in 1% (v/v) acetic acid to each well and incubatation for 30 min at RT completes the staining reaction. Following staining, plates are washed four times with 1% acetic acid to remove unbound dye and then allowed to air dry for 5 min. The stain is solubilized with 100 μl of 10 mM Tris pH 10.5 per well. Absorbance is read at 570 nm.
The percentage (%) of relative growth inhibition was calculated by comparing to DMSO treated only cells (100%). […] The GI50 was calculated using GraphPad PRISM software (GraphPad Software, Inc., San Diego, Calif., USA).

T2 sequence (Q96GD4 whole entry): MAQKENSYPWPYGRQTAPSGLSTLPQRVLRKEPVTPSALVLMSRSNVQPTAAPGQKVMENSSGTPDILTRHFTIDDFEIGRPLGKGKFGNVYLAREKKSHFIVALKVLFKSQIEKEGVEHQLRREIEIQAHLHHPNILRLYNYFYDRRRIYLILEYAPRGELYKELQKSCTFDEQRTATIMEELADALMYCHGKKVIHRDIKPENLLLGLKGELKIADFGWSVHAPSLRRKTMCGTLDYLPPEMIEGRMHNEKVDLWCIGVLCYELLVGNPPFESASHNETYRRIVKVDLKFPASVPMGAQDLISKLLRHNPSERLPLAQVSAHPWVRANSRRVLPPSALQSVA

CC[C@@H](NC(=O)c1ccc2[nH]nc(-c3ccc(OC4CCN(C)CC4)cc3)c2c1)c1cccs1 [Example A63, (R)-3-(4-((1-methylpiperidin-4-yl)oxy)phenyl)-N-(1-(thiophen-2-yl)propyl)-1H-indazole-5-carboxamide]
≤ 5 µM: GI50 [1] | IC50 [2] | IC50 [3] | GI50 [4] | GI50 [5] | GI50 [6] | IC50 [7] | GI50 [8]

CCC(NC(=O)c1ccc2[nH]nc(-c3ccc(OC4CCN(C)CC4)cc3)c2c1)C1CCCCC1 (stereo not drawn) [Example A69, N-(1-cyclohexylpropyl)-3-(4-((1-methylpiperidin-4-yl)oxy)phenyl)-1H-indazole-5-carboxamide]
≤ 5 µM: GI50 [1] | IC50 [2] | IC50 [3] | GI50 [4] | GI50 [5] | GI50 [6] | IC50 [7] | GI50 [8]

Cc1cc(C)c(NC(=O)Nc2ccc3[nH]nc(-c4ccc(OC5CCN(C)CC5)cc4)c3c2)c(Cl)c1 [Example A77, 1-(2-chloro-4,6-dimethylphenyl)-3-(3-(4-((1-methylpiperidin-4-yl)oxy)phenyl)-1H-indazol-5-yl)urea]
≤ 5 µM: GI50 [1] | IC50 [2] | IC50 [3] | GI50 [4] | GI50 [5] | GI50 [6] | IC50 [7] | GI50 [8]

O=C(NC(c1ccsc1)C1CCC1)c1ccc2[nH]nc(-c3ccc(N4CCOCC4)cc3)c2c1 (stereo not drawn) [Example A123, N-(cyclobutyl(thiophen-3-yl)methyl)-3-(4-morpholinophenyl)-1H-indazole-5-carboxamide]
≤ 5 µM: IC50 [2] | IC50 [3] | GI50 [9] | GI50 [6] | IC50 [7] | GI50 [8]

COc1cc(-c2n[nH]c3ccc(C(=O)NC(c4ccccn4)C4CC4)cc23)ccc1OC1CCN(C2COC2)CC1 (stereo not drawn) [Example A195]
≤ 5 µM: IC50 [2] | IC50 [3] | GI50 [9] | GI50 [6] | IC50 [7] | GI50 [8]

O=C(N[C@@H](c1ccccn1)C1CC1)c1ccc2[nH]nc(-c3ccc(OC4CCN(C5COC5)CC4)cc3)c2c1 [Example A196, (R)—N-(cyclopropyl(pyridin-2-yl)methyl)-3-(4-((1-(oxetan-3-yl)piperidin-4-yl)oxy)phenyl)-1H-indazole-5-carboxamide]
≤ 5 µM: IC50 [2] | IC50 [3] | GI50 [9] | GI50 [6] | IC50 [7] | GI50 [8]

O=C(N[C@H](c1ccccn1)C1CC1)c1ccc2[nH]nc(-c3ccc(OC4CCN(C5COC5)CC4)cc3)c2c1 [Example A197, (S)—N-(cyclopropyl(pyridin-2-yl)methyl)-3-(4-((1-(oxetan-3-yl)piperidin-4-yl)oxy)phenyl)-1H-indazole-5-carboxamide]
≤ 5 µM: IC50 [2] | IC50 [3] | GI50 [9] | GI50 [6] | IC50 [7] | GI50 [8]

O=C(Nc1ccc2[nH]nc(-c3ccc(N4CCC(O)CC4)cc3)c2c1)C(c1ccsc1)N1CCC1 (stereo not drawn) [Example A200, 2-(azetidin-1-yl)-N-(3-(4-(4-hydroxypiperidin-1-yl)phenyl)-1H-indazol-5-yl)-2-(thiophen-3-yl)acetamide]
≤ 5 µM: IC50 [2] | IC50 [3] | GI50 [9] | GI50 [6] | IC50 [7] | GI50 [8]

CC(C)(O)C1CCN(c2ccc(-c3n[nH]c4ccc(NC(=O)C(c5ccsc5)N5CCC5)cc34)cc2)CC1 (stereo not drawn) [Example A201, 2-(azetidin-1-yl)-N-(3-(4-(4-(2-hydroxypropan-2-yl)piperidin-1-yl)phenyl)-1H-indazol-5-yl)-2-(thiophen-3-yl)acetamide]
≤ 5 µM: IC50 [2] | IC50 [3] | GI50 [9] | GI50 [6] | IC50 [7] | GI50 [8]

O=CN1CCC(Oc2ccc(-c3n[nH]c4ccc(C(=O)N[C@@H](c5ccccn5)C5CC5)cc34)cc2)CC1 [Example A203, (R)—N-(cyclopropyl(pyridin-2-yl)methyl)-3-(4-((1-formylpiperidin-4-yl)oxy)phenyl)-1H-indazole-5-carboxamide]
≤ 5 µM: IC50 [2] | IC50 [3] | GI50 [9] | GI50 [6] | IC50 [7] | GI50 [8]

O=CN1CCC(Oc2ccc(-c3n[nH]c4ccc(C(=O)N[C@H](c5ccccn5)C5CC5)cc34)cc2)CC1 [Example A204, (S)—N-(cyclopropyl(pyridin-2-yl)methyl)-3-(4-((1-formylpiperidin-4-yl)oxy)phenyl)-1H-indazole-5-carboxamide]
≤ 5 µM: IC50 [2] | IC50 [3] | GI50 [9] | GI50 [6] | IC50 [7] | GI50 [8]

COc1cc(-c2n[nH]c3ccc(C(=O)NC(c4ccccc4)C4CC4)cc23)ccc1OC1CCN(C=O)CC1 (stereo not drawn) [Example A205, N-(cyclopropyl(phenyl)methyl)-3-(4-((1-formylpiperidin-4-yl)oxy)-3-methoxyphenyl)-1H-indazole-5-carboxamide]
≤ 5 µM: IC50 [2] | IC50 [3] | GI50 [9] | GI50 [6] | IC50 [7] | GI50 [8]
